Assays:
TNF-alpha = TNF-alpha release (ELISA) in reconstructed 3D human intestinal epithelium stressed with LPS+TNF-alpha; details: for effect on release of TNF-alpha (in words): LPS+TNF-alpha stressed tissue, vs positive control, t-test; for TNF-alpha Anti-inflammatory activity: compared with CTR+ (LPS+TNF-alpha), * = p<0.05 vs positive control; for TNF-alpha Anti-inflammatory activity / TNF-alpha % var. vs CTR −: reference dose; for TNF-alpha % var. vs CTR −: variation vs untreated tissues (CTR−), LPS+TNF-alpha stressed
Method: (§1) Assays of pro-inflammatory cytokines TNF-alpha and IL-6 were evaluated. The biological model used in the assay is a model of human intestinal epithelium reconstructed in vitro in 3D, consisting of intestinal epithelial and endothelial cells and fibroblasts of human origin. The highly differentiated tissue model is produced at the air-liquid interface in easily manageable culture tissue inserts using a serum-free medium. […] The cells used to produce the tissue model were screened for potential biological contaminants, using specific tests and analyses to guarantee the functionality and quality of the tissues.
(§2) The intestinal epithelium tissues reconstructed in vitro were exposed for 24 hours to the stressor lipopolysaccharide of bacterial origin (LPS) in combination with cytokine TNF-alpha, and simultaneously treated for a further 24 hours with each experimental condition examined. After the 48-hour experimental session, the culture media were harvested to assay pro-inflammatory cytokines TNF-alpha and IL-6.
(§3) Each ingredient and the mixture selected for the treatments were diluted in H2O, taking account of the average intestinal volume of 80 ml. In particular, the following reference doses were used: • calcium butyrate 500 mg; • gluconic acid 29.87 mg; • gluconic acid+calcium butyrate=29.87 mg+500 mg.
(§4) 50 μl of each sample was tested in the tissue model, simulating the following experimental conditions: • reference dose; The experimental protocol involved: • untreated tissues (CTR−); • tissues exposed to pro-inflammatory agents LPS+TNF-alpha (CTR+); • tissues exposed to pro-inflammatory agents LPS+TNF-alpha and treated with butyrate (calcium butyrate); • tissues exposed to pro-inflammatory agents LPS+TNF-alpha and treated with gluconic acid; • tissues exposed to pro-inflammatory agents LPS+TNF-alpha and treated with gluconic acid+butyrate (calcium butyrate) mixture; • Each test was conducted in duplicate. To monitor the ability of the tested ingredients to inhibit the inflammatory response in vitro in a system wherein an inflammatory condition has been induced, the production of pro-inflammatory cytokine TNF-alpha and interleukin 6 (IL-6) was evaluated. At the end of the treatments the culture media were harvested for the TNF-alpha and IL-6 assay using an ELISA kit. The data obtained were subjected to statistical analysis and compared using the t-test. The variations compared with the positive control are deemed significant for p<0.05 and indicated by “*”.
(§5) The results are expressed as mean values ±standard deviation (expressed in pg/ml), as % variation compared with CTR− and as anti-inflammatory activity compared with CTR+.

IL-6 = IL-6 release (ELISA) in reconstructed 3D human intestinal epithelium stressed with LPS+TNF-alpha; details: for effect on release of IL-6 (in words): LPS+TNF-alpha stressed tissue, vs positive control, t-test; for IL-6 Anti-inflammatory activity: compared with CTR+ (LPS+TNF-alpha), * = p<0.05 vs positive control; for IL-6 Anti-inflammatory activity / IL-6 % var. vs CTR −: reference dose; for IL-6 % var. vs CTR −: variation vs untreated tissues (CTR−), LPS+TNF-alpha stressed
Method: as §1, §2, §3, §4, §5

[1] = oral intake; avoids digestion and absorption in the small intestine; cited from earlier work

Row | SMILES | effect on release of TNF-alpha (in words) (TNF-alpha) | TNF-alpha Anti-inflammatory activity (TNF-alpha) [%*] | TNF-alpha % var. vs CTR − (TNF-alpha) [%] | effect on release of IL-6 (in words) (IL-6) | IL-6 Anti-inflammatory activity (IL-6) [%*] | IL-6 % var. vs CTR − (IL-6) [%] | gluconic acid introduced with the diet or diet supplements that reaches the large intestine [1]
1 | CCCC(=O)O [Butyrate, calcium butyrate] | significantly reduce the release of the pro-inflammatory cytokine | 28.8 | 40.5 | significantly reduce release of the pro-inflammatory cytokine | 23.8 | 61.5 | –
2 | O=C(O)[C@H](O)[C@@H](O)[C@H](O)[C@H](O)CO [Gluconic acid, gluconic acid] | significantly reduce the release of the pro-inflammatory cytokine | 30.3 | 37.6 | significantly reduce release of the pro-inflammatory cytokine | 24.3 | 60.5 | over 70%

Reference: patent publication US20250170080A1, “COMPOSITIONS COMPRISING BUTYRIC ACID AND GLUCONIC ACID FOR THE TREATMENT OF DISORDERS AND SYNDROMES ASSOCIATED WITH INTESTINAL BARRIER DYSFUNCTIONS AND DYSBIOSIS” (DIFASS INTERNATIONAL S.P.A., priority 2022, published 2025)
